Data on two compounds can be found in patent publication US9677052B2, “Modified lipopolysaccharide glycoform and method of use” (THE TRUSTEES OF PRINCETON UNIVERSITY, priority 2014, dated 2017).

By Kd is commonly meant the constant that tells how readily two partners part at equilibrium.

Assay [1] can be described thus: Surface plasmon resonance, vancomycin over reference channel (LPS from waaL+). In kind it is binding, Escherichia coli. The following applies: SPR, 25° C., different concentrations of vancomycin. The procedure:
Purified LPS (0.5 mg/ml) from strains MG1210 or MG1211 were extruded in 20 mMTris/HCl pH 8, 150 mM NaCl and immobilized on poly-L-lysine coated CM3 Biacore chips on the active and reference channel, respectively (Malojcić et al., 2014). All experiments were performed using a Biacore X100 instrument at 25° C. at a flow rate of 10 μl/min with 20 mMTris/HCl pH 8, 150 mM NaCl buffer. Different concentrations of vancomycin were injected for 400 s and dissociation was recorded for another 500 s to return to baseline. […] The equilibrium signal in the difference channel was fitted to f=Bmax*abs(x)/(Kd+abs(x)) with R^2=0.88.
(In general: Surface plasmon resonance follows binding to a sensor surface in real time, without labels.)

Assay [2] in a line: Surface plasmon resonance, vancomycin over immobilized purified LPS*. The arrangement: species or system Escherichia coli. To be noted: SPR, Biacore X100, 25° C., LPS* immobilized on CM3 chip, equilibrium signal fit; read-out: Kd, specific binding of vancomycin to LPS*. The procedure:
(§1) The ability of purified LPS* to bind vancomycin in vitro was assessed. LPS* was immobilized on a carboxymethylated dextran (CM3) chip and surface plasmon resonance was used to monitor interactions with differing concentrations of vancomycin. […] To test this hypothesis, weperformed live cell microscopy using a fluorescent vancomycin-BODIPY. A wild-type strain background with an intact OM that prevents the influx of vancomycin was used, to avoid labeling intracellular sites of PG synthesis.

In assay [3] the test system is waaL15 bacteria. The following applies: 1 μg/ml vancomycin-BODIPY-FL, 10 min, wild-type background with intact OM. On the procedure: (§2) Overnight cultures were sub-cultured at 1:100 into fresh LB broth and grown for 1.5 h. A1 ml aliquot was taken, pelleted and was twice washed with 1 ml M63 medium. Cells were resuspended in 0.1 ml of M63 broth containing 1 μg/ml of vancomycin-BODIPY-FL (LifeTechnologies, V-34850). Cells were incubated at room temperature for 10 min and then washed twice with 1 ml M63 broth. Cells were then resuspended in 0.03 ml of M63 broth, and approximately […] was spotted onto an M63-agarose pad. Cells were immediately visualized on a Nikon Eclipse 90i microscope with a Nikon Plan Apo 1.4/100× Oil Ph3 phase objective.
as §1

Assay [4] deals with waaL+ cells. To be noted: 1 μg/ml vancomycin-BODIPY-FL, 10 min, wild-type background with intact OM. The procedure: as §2, §1

In the case of `CN[C@H](CC(C)C)C(=O)N[C@H]1C(=O)N[C@@H](CC(N)=O)C(=O)N[C@H]2C(=O)N[C@H]3C(=O)N[C@H](C(=O)N[C@H](C(=O)O)c4cc(O)cc(O)c4-c4cc3ccc4O)[C@H](O)c3ccc(c(Cl)c3)Oc3cc2cc(c3O[C@@H]2O[C@H](CO)[C@@H](O)[C@H](O)[C@H]2O[C@H]2C[C@](C)(N)[C@H](O)[C@H](C)O2)Oc2ccc(cc2Cl)[C@H]1O` [vancomycin], the “binding to the reference channel” value in assay [1] is “No binding”. Moreover, in assay [2], the Kd is 480 ± 80 nM.

Consider vancomycin-BODIPY-FL, for which the “fluorescent labeling of cells” value in assay [3] was “circumferential labeling”; in assay [4], “could not be fluorescently labeled”.
